PMC5584254, “Identification of novel small molecule Beclin 1 mimetics activating autophagy” (Oncotarget, 2017)
Counter-ions that a name gives are not always drawn.

Legend:
PC-3 and PC-3a cells = experiment: RFP-GFP-LC3 fluorescence microscopy (autophagic flux); format: cell-based, Human; conditions: cells transfected with RFP-GFP-LC3, treated 24 h; PC-3a and PC-3
Experimental: (§1) Figure 5 Acridine compounds induce autophagy in prostate cancer cells (A) LC3-II conversion in western blot analysis indicated the activity of autophagy. Cells were treated with DMSO or compounds for 24 h, and then lysed and processed for western blot analysis of LC3. (–)G and EBSS were used as positive controls. […] Yellow puncta indicate autophagosome (overlay of red and green fluorescence); red puncta indicate autolysosome (due to green fluorescence quenching at the acidic condition). Cells expressing RFP-GFP-LC3 were treated with compounds A13, A15 or A21 at indicated concentration for 24 h.
PC-3 and PC-3a cells were transfected with ptfLC3 plasmid using Lipofectamine 2000 (Invitrogen Life Technologies, Carlsbad, CA). ptfLC3 was a gift from Tamotsu Yoshimori (Addgene plasmid # 21074), and is a tandem fluorescent-tagged LC3 with mRFP (mRFP, monomeric Red Fluorescent Protein) and EGFP (EGFP, Enhanced Green Fluorescent Protein). Twenty-four hours after transfection, cells were treated with compounds for 24 h, then fixed in 4% formaldehyde for 10 min. Cells were then washed three times with PBS, stained with DAPI (0.5 μg/ml in PBS) for 5 min and observed under a fluorescence microscope (OLYMPUS IX81, Tokyo, Japan) with X 40 lens.

DU145 = experiment: MTT-based cytotoxicity assay, DU145; conditions: Homo sapiens, DU-145, averages of at least two independent experiments, read-out: Cytotoxicity in different cell lines (IC50, μM) DU145
From the text: (§2) Human prostate cancer cell lines PC-3 and DU145, were purchased from American Type Culture Collection (ATCC) and used within 50 passages. PC-3a is a derivative of PC-3 that is resistant to chemo/radiotherapy, established in our lab and confirmed by genotyping. All cells were maintained in DMEM (Mediatech, Manassas, VA) supplemented with 10% fetal bovine serum (FBS) (Sigma-Aldrich, St. Louis, MO), 1% Glutamine (Mediatech, Manassas, VA), 1% antibiotics (Mediatech, Manassas, VA). Compounds for primary FP-based HTS screening were from Prestwick, Microsource, University of Kansas Center of Excellence in Chemical Methodologies & Library Development (KU CMLD, Lawrence, KS), and Chembridge libraries. Compounds for MTT and SPR validation experiment were purchased from Microsource (Gaylordsville, CT) and Hit2lead Company (San Diego, CA). Acridine analogues, compound 1–6, were from our in-house library (provided by Specialized Chemistry Center, University of Kansas, Lawrence, KS); compound 7–17 were synthesized as described in supplementary information. (–)-Gossypol was isolated from racemic gossypol as we previously described. ABT-263 and DMSO were purchased from Sigma. MTT-based cytotoxicity assay and western blot analysis was carried out according to our previous publications. The primary antibodies used were LC3B (#2775) (Cell signaling Technology, Danvers, MA) and β-actin (A5441) (Sigma).

[1] = tested on: PC-3 and PC-3a prostate cancer cells; experiment: Western blot of autophagy markers (LC3 conversion, P62); format: cell-based, Human; conditions: 24 h treatment
Experimental: as §1
Figure 8 Acridine compounds induce autophagy in PC-3 and PC-3a cancer cells LC3-II conversion in western blot analysis indicated the activity of autophagy. Cells were treated with DMSO or compounds for 24 h, and then lysed and processed for western blot analysis of LC3. (–)G and EBSS were used as positive controls.
as §2

[2] = target: T1, Bcl-xL-Beclin 1 20-mer complex (Homo sapiens, UniProt Q07817); experiment: FP competitive binding assay (disruption of Bcl-xL-20-mer complex); conditions: 2.5 μM Bcl-xL protein, 400 nM fluorescein-labeled 20-mer
T1 construct: made in house
T1 sequence (Q07817 whole entry, one chain of several): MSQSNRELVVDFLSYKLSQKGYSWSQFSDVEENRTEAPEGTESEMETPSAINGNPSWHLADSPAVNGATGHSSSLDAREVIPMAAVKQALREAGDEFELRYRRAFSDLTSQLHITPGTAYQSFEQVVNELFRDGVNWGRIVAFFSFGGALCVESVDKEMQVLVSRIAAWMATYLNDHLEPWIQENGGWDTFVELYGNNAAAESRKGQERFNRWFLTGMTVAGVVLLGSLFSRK
Experimental: Figure 1 FP-based HTS for Beclin 1 mimetics (A) Schematic presentation of the Beclin 1 protein and sequences of five synthetic peptides modified from Beclin 1 BH3 peptide. Diagram of human Beclin 1 protein with different domains is shown in the bottom. BH3 domain is necessary and sufficient for interaction with Bcl-2/Bcl-xL. Amino acids in red are the critical residues for the binding. (B) Five fluorescein-labeled Beclin 1 BH3 peptides were tested for their binding ability to Bcl-xL protein in FP assay. Fluorescein-labeled Bak BH3 peptide was used as a positive control. Bcl-xL protein was titrated to a solution of 50 nM peptides. (C) Competitive binding assay with positive controls, ABT-263 and (–)-gossypol ((–)G). […] (D–E) HTS was performed with ~50000 compounds from Prestwick, Microsource, CMLD and Chembridge libraries. The four libraries were divided into two groups and screened separately. Compounds activity (percent of inhibition) of first screen (D) and second screen (E) were shown with Z′ value indicated on top. Plate median + 3SD was used as a threshold to determine the initial hits.
Bcl-xL protein was immobilized on the sensor chip with 10000 RU.
All N′-fluorescein-labeled peptides were purchased from Kansas State University (Manhattan, KS). […] 16mer Bak ([…]) sequence was from published literature. Bcl-xL protein (25 kDa, > 90% pure based on SDS–PAGE) was expressed and purified in Protein Product Group, University of Kansas. FP assays were carried out as described in our previous publication with some modified. […] Then, fluorescein-labeled peptide was added to each well with a final concentration of 50 nM and incubated at room temperature for 30 min. Anisotropy measurements were taken at room temperature using a BioTek Synergy H4 plate reader (Biotek, Winooski, VT) following the protocol recommended by the manufacture. The Kd was estimated by nonlinear regression to a one-site binding model using GraphPad Prism 5.0 (GraphPad, San Diego, CA). […] Compound solvent DMSO only was used as a negative control in the competition assay. After 2 h incubation, the plate was read and polarization was calculated.

PC-3a = experiment: MTT-based cytotoxicity assay, PC-3a; conditions: Homo sapiens, averages of at least two independent experiments, read-out: Cytotoxicity in different cell lines (IC50, μM) PC-3a
From the text: as §2

## Nc1ccc2cc3ccc(N)cc3nc2c1 [Compound A13, PROFLAVINE HEMISULFATE]
PC-3 and PC-3a cells
  RFP-GFP-LC3 puncta: many strong red puncta
DU145
  IC50: 0.81 ± 0.51 µM
[1]
  LC3-I to LC3-II conversion: Increased level of LC3-II
[2]
  IC50: 4.84 µM
  Ki: 0.84 µM
PC-3a
  IC50: 0.68 ± 0.16 µM

## CCOc1ccc2nc3cc(N)ccc3c(N)c2c1 [Compound A15, ETHACRIDINE LACTATE]
PC-3 and PC-3a cells
  RFP-GFP-LC3 puncta: many strong red puncta
DU145
  IC50: 10.5 ± 1.11 µM
[1]
  LC3-I to LC3-II conversion: Increased level of LC3-II
[2]
  IC50: 102 µM
  Ki: 28 µM
PC-3a
  IC50: 2.33 ± 0.99 µM

## CCN(CC)CCCC(C)Nc1c2ccc(Cl)cc2nc2ccc(OC)cc12 (stereo not drawn) [Compound A21, QUINACRINE HYDROCHLORIDE]
PC-3 and PC-3a cells
  RFP-GFP-LC3 puncta: many strong red puncta
DU145
  IC50: 2.31 ± 0.39 µM
[1]
  LC3-I to LC3-II conversion: Increased level of LC3-II
[2]
  IC50: 48.7 µM
  Ki: 13.2 µM
PC-3a
  IC50: 0.8 ± 0.12 µM
